The results in this text go back to patent US9763997B2, “Spray drying vancomycin” (Hospira, Inc., priority 2011, dated 2017).

Data set [1] in a line: Stability testing of spray dried batches at 25° C./60% RH, 30° C./60% RH, 40° C./75% RH (moisture by Karl Fischer, pH of reconstituted solution, reconstitution time, chromatographic purity). The format is physicochemical. The note with it: Initial. The protocol: (§1) Batches for stability testing were made using the spray dried formulation of vancomycin HCl (15% by weight), PEG-400 (3% by weight), mannitol (3% by weight) in WFI, with the API sourced from Abbott Laboratories (North Chicago, Ill.). Spray dried batches were stored at 25° C./60% Relative Humidity (RH), 30° C./60% RH, and 40° C./75% RH for three months. The stability data on moisture by Karl Fischer, pH (of the reconstituted solution), reconstitution time and chromatographic purity are presented in Table 7. The chromatographic purity was examined using the analytical HPLC method described in the current USP (United States Pharmacopeia) monograph for vancomycin. The test results for the API lot used to make the spray dried product were also listed for comparison.
The chromatographic purity of vancomycin B for all samples tested in this study were within USP specifications. All samples were stored at the accelerated conditions of 40° C./75% RH for 3 months and met USP criterion for vancomycin B by chromatographic purity (NLT 80% vancomycin B).

Data set [2] is described as follows: Chromatographic purity (vancomycin B and impurities), analytical HPLC method of the USP vancomycin monograph. The format is physicochemical. The protocol:
as §1

Where a name gives a salt, the structure may show the parent alone.

For `CN[C@H](CC(C)C)C(=O)N[C@H]1C(=O)N[C@@H](CC(N)=O)C(=O)N[C@H]2C(=O)N[C@H]3C(=O)N[C@H](C(=O)N[C@H](C(=O)O)c4cc(O)cc(O)c4-c4cc3ccc4O)[C@H](O)c3ccc(c(Cl)c3)Oc3cc2cc(c3O[C@@H]2O[C@H](CO)[C@@H](O)[C@H](O)[C@H]2O[C@H]2C[C@](C)(N)[C@H](O)[C@H](C)O2)Oc2ccc(cc2Cl)[C@H]1O` [API Lot 09097619, Vancomycin HCl], the “% Vancomycin B” value in data set [1] stood at 91.9%.
In data set [2] (Table 8, other impurities), `CN[C@H](CC(C)C)C(=O)N[C@H]1C(=O)N[C@@H](CC(N)=O)C(=O)N[C@H]2C(=O)N[C@H]3C(=O)N[C@H](C(=O)N[C@H](C(=O)O)c4cc(O)cc(O)c4-c4cc3ccc4O)[C@H](O)c3ccc(c(Cl)c3)Oc3cc2cc(c3O[C@@H]2O[C@H](CO)[C@@H](O)[C@H](O)[C@H]2O[C@H]2C[C@](C)(N)[C@H](O)[C@H](C)O2)Oc2ccc(cc2Cl)[C@H]1O` [API, Vancomycin Hydrochloride] displayed an Other of 4.5%. Besides, in data set [2] (Table 8, tested for impurities), the N-Demethylvancomycin was found to be 0.6% and the “Vancomycin B” value is 94.9%.
